As usually defined, the MIC is the least concentration at which growth counts as inhibited. A low value points to greater potency.

The test system of the test is Escherichia coli ATCC 35218. Description: Etest strip MIC, deposition of the sample in droplets along the strip. It is filed as cell-based.

On to gentamicin, for which the MIC (Table 2, droplet, ATCC 35218, 0.01 McF, 4 H) worked out at 1.3 µg/mL; the MIC (Table 2, droplet, ATCC 35218, 0.01 McF, 5 H) came out at 1.3 µg/mL; the MIC (Table 2, droplet, ATCC 35218, 0.1 McF, 4 H) came out at 2 µg/mL; the MIC (Table 2, droplet/replicate 2, ATCC 35218, 0.5 McF, 4 H) was found to be 2 µg/mL.

These data come from patent US10870876B2, “Method for detecting a presence or absence of at least one first zone of inhibition” (BIOMÉRIEUX, priority 2015, dated 2020).
